Values joined by “and” are separate entries in the source; they are usually repeats but may differ in a detail not shown here. Identical values can stand only once.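 Results reflect a 48-hour exposure of cells in 96-well plates to compound at five concentrations. GI50 is the concentration that inhibits growth by half. At the TGI there is no net growth.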
Columns and labels:
Assay in all cases: growth of human tumour cells (NCI), 48 h
PC-3 prostate = test system: PC-3 prostate
HCT-116 colon = test system: HCT-116 colon
MDA-N = test system: MDA-N
MCF7 breast = test system: MCF7 breast
M14 melanoma = test system: M14 melanoma
MDA-MB-231 breast = test system: MDA-MB-231 breast
A498 renal = test system: A498 renal
SW-620 colon = test system: SW-620 colon
SK-MEL-28 melanoma = test system: SK-MEL-28 melanoma
UACC-257 melanoma = test system: UACC-257 melanoma
RXF 393 renal = test system: RXF 393 renal
UO-31 renal = test system: UO-31 renal
CAKI-1 renal = test system: CAKI-1 renal
SNB-19 CNS = test system: SNB-19 CNS
786-0 renal = test system: 786-0 renal
KM12 colon = test system: KM12 colon
HOP-62 NSCLC = test system: HOP-62 NSCLC
A549 NSCLC = test system: A549 NSCLC
HL-60(TB) leukemia = test system: HL-60(TB) leukemia
ACHN renal = test system: ACHN renal
SR leukemia = test system: SR leukemia
EKVX NSCLC = test system: EKVX NSCLC
SNB-75 CNS = test system: SNB-75 CNS
SK-MEL-2 melanoma = test system: SK-MEL-2 melanoma
HT29 colon = test system: HT29 colon
SN12C renal = test system: SN12C renal
IGROV1 ovarian = test system: IGROV1 ovarian
OVCAR-5 ovarian = test system: OVCAR-5 ovarian
SK-OV-3 ovarian = test system: SK-OV-3 ovarian
UACC-62 melanoma = test system: UACC-62 melanoma
LOX IMVI melanoma = test system: LOX IMVI melanoma
SK-MEL-5 melanoma = test system: SK-MEL-5 melanoma
DU-145 prostate = test system: DU-145 prostate
MOLT-4 leukemia = test system: MOLT-4 leukemia
HOP-92 NSCLC = test system: HOP-92 NSCLC
HCT-15 colon = test system: HCT-15 colon
CCRF-CEM leukemia = test system: CCRF-CEM leukemia
U251 CNS = test system: U251 CNS
TK-10 renal = test system: TK-10 renal
OVCAR-8 ovarian = test system: OVCAR-8 ovarian
HS 578T breast = test system: HS 578T breast
SF-268 CNS = test system: SF-268 CNS
MDA-MB-435 = test system: MDA-MB-435
K-562 leukemia = test system: K-562 leukemia
RPMI-8226 leukemia = test system: RPMI-8226 leukemia
T-47D breast = test system: T-47D breast
NCI-H460 lung = test system: NCI-H460 lung
OVCAR-4 ovarian = test system: OVCAR-4 ovarian
COLO 205 colon = test system: COLO 205 colon
HCC-2998 colon = test system: HCC-2998 colon
SF-295 CNS = test system: SF-295 CNS
NCI-H226 lung = test system: NCI-H226 lung
OVCAR-3 ovarian = test system: OVCAR-3 ovarian
NCI-H522 lung = test system: NCI-H522 lung
NCI/ADR-RES ovarian = test system: NCI/ADR-RES ovarian
NCI-H23 lung = test system: NCI-H23 lung
SF-539 CNS = test system: SF-539 CNS
MALME-3M melanoma = test system: MALME-3M melanoma

## N#Cc1nc(Cc2cccs2)oc1N
PC-3 prostate
  TGI: > 100000 nM
HCT-116 colon
  TGI: > 100000 nM
MDA-N
  TGI: > 100000 nM
MCF7 breast
  TGI: > 100000 nM
M14 melanoma
  TGI: > 100000 nM
MDA-MB-231 breast
  TGI: > 100000 nM
A498 renal
  TGI: > 100000 nM
SW-620 colon
  TGI: > 100000 nM
SK-MEL-28 melanoma
  TGI: > 100000 nM
UACC-257 melanoma
  TGI: > 100000 nM
RXF 393 renal
  TGI: > 100000 nM
UO-31 renal
  TGI: > 100000 nM
CAKI-1 renal
  TGI: > 100000 nM
SNB-19 CNS
  TGI: > 100000 nM
786-0 renal
  TGI: > 100000 nM
KM12 colon
  TGI: > 100000 nM
HOP-62 NSCLC
  TGI: > 100000 nM
A549 NSCLC
  TGI: > 100000 nM
HL-60(TB) leukemia
  TGI: > 100000 nM
ACHN renal
  TGI: > 100000 nM
SR leukemia
  TGI: > 100000 nM
EKVX NSCLC
  TGI: > 100000 nM
SNB-75 CNS
  TGI: > 100000 nM
SK-MEL-2 melanoma
  TGI: > 100000 nM
HT29 colon
  TGI: > 100000 nM
SN12C renal
  TGI: > 100000 nM
IGROV1 ovarian
  TGI: > 100000 nM
OVCAR-5 ovarian
  TGI: > 100000 nM
SK-OV-3 ovarian
  TGI: > 100000 nM
UACC-62 melanoma
  TGI: > 100000 nM
LOX IMVI melanoma
  TGI: > 100000 nM
SK-MEL-5 melanoma
  TGI: > 100000 nM
DU-145 prostate
  TGI: > 100000 nM
MOLT-4 leukemia
  TGI: > 100000 nM
HOP-92 NSCLC
  TGI: > 100000 nM
HCT-15 colon
  TGI: > 100000 nM
CCRF-CEM leukemia
  TGI: > 100000 nM
U251 CNS
  TGI: > 100000 nM
TK-10 renal
  TGI: > 100000 nM
OVCAR-8 ovarian
  TGI: > 100000 nM
HS 578T breast
  TGI: > 100000 nM
SF-268 CNS
  TGI: > 100000 nM
MDA-MB-435
  TGI: > 100000 nM
K-562 leukemia
  TGI: > 100000 nM
RPMI-8226 leukemia
  TGI: > 100000 nM

## C[C@H]1CC(=O)[C@@]2(O)C#C/C=C\C#C[C@@H]3Nc4c(cc(O)c5c4C(=O)c4ccccc4C5=O)[C@]24O[C@]314
T-47D breast
  TGI: 612 nM
NCI-H460 lung
  GI50: 2.5 nM
HCT-116 colon
  GI50: 2.5 nM
  TGI: 178 nM and 83.6 nM
MDA-N
  TGI: 260 nM
MCF7 breast
  GI50: 2.5 nM
  TGI: 247 nM and 895 nM
M14 melanoma
  GI50: 2.5 nM
  TGI: 64.5 nM and 37.1 nM
MDA-MB-231 breast
  TGI: > 25000 nM
OVCAR-4 ovarian
  GI50: 351 nM
  TGI: 648 nM and 1920 nM
A498 renal
  TGI: 217 nM
SW-620 colon
  GI50: 5.9 nM
  TGI: 306 nM and 337 nM
SK-MEL-28 melanoma
  GI50: 40.9 nM
  TGI: 241 nM and 729 nM
UACC-257 melanoma
  GI50: 7.94 nM
  TGI: 204 nM and 286 nM
RXF 393 renal
  GI50: 37.3 nM
  TGI: 68.4 nM and 242 nM
CAKI-1 renal
  GI50: 2.5 nM
  TGI: 59.7 nM and 51.2 nM
SNB-19 CNS
  TGI: 172 nM
786-0 renal
  GI50: 4.35 nM
  TGI: 106 nM and 262 nM
KM12 colon
  GI50: 128 nM
  TGI: 226 nM and 480 nM
HOP-62 NSCLC
  GI50: 2.5 nM
  TGI: 6.98 nM and 6.25 nM
A549 NSCLC
  TGI: 820 nM
HL-60(TB) leukemia
  GI50: 2.5 nM
  TGI: 5.52 nM and 5.2 nM
ACHN renal
  TGI: 25.2 nM
SR leukemia
  TGI: 42.6 nM
EKVX NSCLC
  GI50: 292 nM
  TGI: 885 nM and 1400 nM
COLO 205 colon
  TGI: 342 nM
SNB-75 CNS
  GI50: 6.2 nM
  TGI: 80.4 nM and 71.9 nM
HCC-2998 colon
  TGI: 59.5 nM
HT29 colon
  GI50: 25.3 nM
  TGI: > 25000 nM
SN12C renal
  GI50: 2.5 nM
  TGI: 28.8 nM and 20.1 nM
IGROV1 ovarian
  GI50: 2.5 nM
  TGI: 452 nM and 700 nM
OVCAR-5 ovarian
  TGI: 679 nM
SF-295 CNS
  GI50: 2.5 nM
  TGI: 54.2 nM
NCI-H226 lung
  GI50: 2.5 nM
OVCAR-3 ovarian
  TGI: > 25000 nM
SK-OV-3 ovarian
  TGI: 95.4 nM
UACC-62 melanoma
  TGI: 133 nM
LOX IMVI melanoma
  GI50: 2.5 nM
  TGI: 180 nM and 326 nM
SK-MEL-5 melanoma
  TGI: 123 nM and 41.2 nM
DU-145 prostate
  GI50: 2.5 nM
NCI-H522 lung
  GI50: 32 nM
  TGI: 293 nM and 384 nM
NCI/ADR-RES ovarian
  TGI: 440 nM
NCI-H23 lung
  GI50: 3.59 nM
  TGI: 59.2 nM and 101 nM
MOLT-4 leukemia
  GI50: 2.5 nM
  TGI: 2.78 nM
SF-539 CNS
  GI50: < 1 nM
  TGI: 21.9 nM and 28.1 nM
HOP-92 NSCLC
  TGI: 336 nM
HCT-15 colon
  GI50: 7.22 nM
  TGI: 836 nM and 148 nM
CCRF-CEM leukemia
  GI50: 2.5 nM
MALME-3M melanoma
  TGI: 518 nM
U251 CNS
  TGI: 453 nM
TK-10 renal
  GI50: 492 nM
OVCAR-8 ovarian
  GI50: 4.68 nM
  TGI: 124 nM and 258 nM
HS 578T breast
  GI50: 292 nM
  TGI: 8350 nM and 1350 nM
SF-268 CNS
  GI50: 5.99 nM
  TGI: 89.7 nM and 543 nM
MDA-MB-435
  GI50: 19.6 nM
  TGI: 219 nM and 262 nM
K-562 leukemia
  TGI: 233 nM and 605 nM
RPMI-8226 leukemia
  GI50: 3.13 nM
  TGI: 249 nM and 154 nM

Source: PubChem BioAssay (NCI)
